Measurements as given in ChEMBL document CHEMBL1201862, “PubChem BioAssay data set” (2004).
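Values below derive from 48-hour exposures of cells grown in 96-well plates, with endpoints linearly interpolated between the two concentrations bracketing the appropriate inhibition level. GI50 = concentration required for 50% inhibition of growth.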 The source made the active and inactive calls. Rule as the data show it: active = GI50 up to about 1.1 µM and inactive = higher.

Experiments:
Experiment in all cases: NCI tumour cell line growth inhibition, 48 h
SF-268 = test system: SF-268
HCT-116 = test system: HCT-116
786-0 = test system: 786-0
RXF 393 = test system: RXF 393
OVCAR-5 = test system: OVCAR-5
SNB-75 = test system: SNB-75
SF-295 = test system: SF-295
ACHN = test system: ACHN
SK-MEL-5 = test system: SK-MEL-5
UACC-62 = test system: UACC-62
HT-29 = test system: HT-29
T47D = test system: T47D
OVCAR-4 = test system: OVCAR-4
CAKI-1 = test system: CAKI-1
MDA-MB-435 = test system: MDA-MB-435
Malme-3M = test system: Malme-3M
A549 = test system: A549
KM12 = test system: KM12
OVCAR-3 = test system: OVCAR-3
DU-145 = test system: DU-145

Row | Structure (SMILES) | GI50 (SF-268) | GI50 (HCT-116) | GI50 (786-0) | GI50 (RXF 393) | GI50 (OVCAR-5) | GI50 (SNB-75) | GI50 (SF-295) | GI50 (ACHN) | GI50 (SK-MEL-5) | GI50 (UACC-62) | GI50 (HT-29) | GI50 (T47D) | GI50 (OVCAR-4) | GI50 (CAKI-1) | GI50 (MDA-MB-435) | GI50 (Malme-3M) | GI50 (A549) | GI50 (KM12) | GI50 (OVCAR-3) | GI50 (DU-145)
1 | N#CC1CCN2N=C(c3ccccc3)SC12c1ccccc1 (centres undefined) | > 100 µM (inactive) | 35.2 µM (inactive) | 89.1 µM (inactive) | 31.3 µM (inactive) | > 100 µM (inactive) | > 100 µM (inactive) | 60.5 µM (inactive) | 21.1 µM (inactive) | 34.4 µM (inactive) | 4.91 µM (inactive) | 32.1 µM (inactive) | 24.5 µM (inactive) | 76.7 µM (inactive) | 35.4 µM (inactive) | 61.4 µM (inactive) | > 100 µM (inactive) | 23.7 µM (inactive) | 48.6 µM (inactive) |  | 
2 | CCOC(=O)C(C(=O)COC(C)(C)C)[C@@H]1C=C[C@H](OC(C)=O)C1 (some centres undefined) | > 100 µM (inactive) | > 100 µM (inactive) | > 100 µM (inactive) |  | > 100 µM (inactive) | > 100 µM (inactive) | > 100 µM (inactive) | > 100 µM (inactive) |  | > 100 µM (inactive) | > 100 µM (inactive) | > 100 µM (inactive) | > 100 µM (inactive) | > 100 µM (inactive) | > 100 µM (inactive) | > 100 µM (inactive) | > 100 µM (inactive) | > 100 µM (inactive) | > 100 µM (inactive) | 
3 | O=C1CSC(c2ccc([N+](=O)[O-])cc2)N1c1ccc(-c2ccc(-n3c(-c4ccccc4)nc4ccccc4c3=O)cc2)cc1 (centres undefined) | > 100 µM (inactive) | 60.5 µM (inactive) | 70.8 µM (inactive) |  | > 100 µM (inactive) |  | 85.3 µM (inactive) | 56.5 µM (inactive) | 17.3 µM (inactive) | 35.1 µM (inactive) | 49.7 µM (inactive) | 21.5 µM (inactive) | 34.2 µM (inactive) | > 100 µM (inactive) | 59.7 µM (inactive) | 58.1 µM (inactive) | 57 µM (inactive) | 21.4 µM (inactive) | 53.1 µM (inactive) | > 100 µM (inactive)
4 | O=c1c(-c2ccccc2)c(SCCO)n(-c2ccccc2)c(=S)n1-c1ccccc1 | > 100 µM (inactive) | > 100 µM (inactive) | > 100 µM (inactive) |  | > 100 µM (inactive) | 39.6 µM (inactive) | > 100 µM (inactive) | > 100 µM (inactive) | > 100 µM (inactive) | 39.7 µM (inactive) | > 100 µM (inactive) |  | > 100 µM (inactive) | > 100 µM (inactive) | > 100 µM (inactive) | > 100 µM (inactive) | > 100 µM (inactive) | > 100 µM (inactive) | > 100 µM (inactive) | > 100 µM (inactive)
5 | CCOC(=O)CC1(Cc2ccc(OCc3ccccc3)cc2)C(=O)OC(c2ccccc2)N1C(=O)c1ccccc1 (centres undefined) | > 100 µM (inactive) | > 100 µM (inactive) | > 100 µM (inactive) | > 100 µM (inactive) | > 100 µM (inactive) |  | > 100 µM (inactive) | > 100 µM (inactive) | > 100 µM (inactive) | > 100 µM (inactive) | > 100 µM (inactive) | > 100 µM (inactive) | > 100 µM (inactive) | > 100 µM (inactive) | > 100 µM (inactive) | > 100 µM (inactive) | > 100 µM (inactive) | > 100 µM (inactive) | > 100 µM (inactive) | > 100 µM (inactive)
6 | N#CC(C#N)/N=N/c1ccc(-c2nc3ccccc3o2)cc1 | 27.5 µM (inactive) | 5.55 µM (inactive) | 14.4 µM (inactive) |  | 17.4 µM (inactive) | 24.4 µM (inactive) |  | 12.9 µM (inactive) | 2.05 µM (inactive) | 6.05 µM (inactive) | 12.8 µM (inactive) | 4.32 µM (inactive) | 12 µM (inactive) |  | 16.5 µM (inactive) | 13.3 µM (inactive) | 21 µM (inactive) | 20.9 µM (inactive) | 4.19 µM (inactive) | 13.3 µM (inactive)
7 | CC(C)(C)OC(=O)NNC(=O)C1Cc2ccccc2OC1=O (centres undefined) | > 100 µM (inactive) | > 100 µM (inactive) | > 100 µM (inactive) | > 100 µM (inactive) | > 100 µM (inactive) |  | > 100 µM (inactive) | > 100 µM (inactive) | > 100 µM (inactive) | > 100 µM (inactive) | > 100 µM (inactive) |  |  | > 100 µM (inactive) | > 100 µM (inactive) | > 100 µM (inactive) | > 100 µM (inactive) | > 100 µM (inactive) | > 100 µM (inactive) | > 100 µM (inactive)
8 | CC1C(c2ccc3c(c2)OCO3)c2cc3c(cc2OC1N1CCCCC1)OCO3 (centres undefined) | > 100 µM (inactive) | 42.6 µM (inactive) | 61.5 µM (inactive) |  | > 100 µM (inactive) |  | 30.6 µM (inactive) | 59.6 µM (inactive) | 54.6 µM (inactive) | 88.9 µM (inactive) | 57.5 µM (inactive) | 30.7 µM (inactive) |  | 23.4 µM (inactive) | 25.2 µM (inactive) |  | > 100 µM (inactive) | 41.9 µM (inactive) | 41.6 µM (inactive) | 52.8 µM (inactive)
9 | CC[C@H](NC1=C(Cl)C(=O)c2c(O)ccc(O)c2C1=O)C(=O)OC | 4.13 µM (inactive) | 2.34 µM (inactive) | 4.69 µM (inactive) |  | > 10 µM (inactive) | > 10 µM (inactive) | > 10 µM (inactive) | > 10 µM (inactive) | 6.53 µM (inactive) | > 10 µM (inactive) | 2.78 µM (inactive) |  | 7.71 µM (inactive) | > 10 µM (inactive) | 3.26 µM (inactive) | 4.28 µM (inactive) | > 10 µM (inactive) | > 10 µM (inactive) | 4.19 µM (inactive) | > 10 µM (inactive)
10 | N=C(N)n1nc2c(c1O)CCC2 | > 100 µM (inactive) | > 100 µM (inactive) | > 100 µM (inactive) | > 100 µM (inactive) | > 100 µM (inactive) | > 100 µM (inactive) | > 100 µM (inactive) | > 100 µM (inactive) | > 100 µM (inactive) | > 100 µM (inactive) | > 100 µM (inactive) |  | > 100 µM (inactive) | > 100 µM (inactive) | > 100 µM (inactive) | > 100 µM (inactive) | > 100 µM (inactive) |  | > 100 µM (inactive) | > 100 µM (inactive)
11 | N#Cc1ccc(CSC2=C(c3ccc(Cl)cc3)S/C(=C3\SC(SCc4ccc(C#N)cc4)=C(c4ccc(Cl)cc4)S3)S2)cc1 | > 100 µM (inactive) | > 100 µM (inactive) | > 100 µM (inactive) | > 100 µM (inactive) | > 100 µM (inactive) |  | > 100 µM (inactive) | > 100 µM (inactive) | > 100 µM (inactive) | > 100 µM (inactive) | > 100 µM (inactive) | > 100 µM (inactive) | > 100 µM (inactive) | > 100 µM (inactive) | > 100 µM (inactive) | > 100 µM (inactive) | > 100 µM (inactive) | > 100 µM (inactive) | > 100 µM (inactive) | > 100 µM (inactive)
12 | COc1cc(N(CCC#N)CCC#N)ccc1C(/N=N/c1cccc(C)c1)=N\NC(=O)c1ccc(C)cc1 | 35.5 µM (inactive) | > 100 µM (inactive) | > 100 µM (inactive) | 73.8 µM (inactive) | > 100 µM (inactive) |  | > 100 µM (inactive) | 21.8 µM (inactive) | > 100 µM (inactive) | 37.2 µM (inactive) | > 100 µM (inactive) | 66.2 µM (inactive) | > 100 µM (inactive) | > 100 µM (inactive) | > 100 µM (inactive) | 43.5 µM (inactive) | > 100 µM (inactive) | > 100 µM (inactive) | > 100 µM (inactive) | > 100 µM (inactive)
13 | c1ccc(C(/C(=N/c2ccc(Cc3ccc(/N=C(\C(c4ccccc4)c4ccccc4)N4CC4)cc3)cc2)N2CC2)c2ccccc2)cc1 | 4.86 µM (inactive) | 4.36 µM (inactive) | 14.8 µM (inactive) | 1.09 µM (active) | 11.5 µM (inactive) |  | 9.31 µM (inactive) | 5.82 µM (inactive) | 5.04 µM (inactive) | 2.32 µM (inactive) | 3.1 µM (inactive) | 2.61 µM (inactive) |  | 6.95 µM (inactive) | 8.73 µM (inactive) | 14.9 µM (inactive) | 7.36 µM (inactive) | 6.28 µM (inactive) | 3.66 µM (inactive) | 12.6 µM (inactive)
14 | N[C@H]1CCN(c2c(F)cc3c(=O)c(C(=O)O)cn4c3c2Oc2c-4ccc3c2ccc2ccccc23)C1 | 0.288 µM (active) | 0.492 µM (active) | 0.128 µM (active) | 0.255 µM (active) | 1.58 µM (inactive) |  | 1.48 µM (inactive) | 0.23 µM (active) | 0.776 µM (active) | 5.68 µM (inactive) | 0.117 µM (active) | 2.65 µM (inactive) | 0.535 µM (active) | 2.79 µM (inactive) | 1.05 µM (active) | 16.9 µM (inactive) | 1.12 µM (inactive) | 1 µM (active) | 13.1 µM (inactive) | 0.942 µM (active)
15 | O=C1C2=Nc3ccccc3C(O)(C(=O)O)N2c2ccccc21 (centres undefined) | 18.2 µM (inactive) | 20 µM (inactive) | 36.5 µM (inactive) | 40 µM (inactive) | 34.8 µM (inactive) | 27.2 µM (inactive) | 17.2 µM (inactive) | 26.5 µM (inactive) | 14 µM (inactive) |  | 21.2 µM (inactive) |  | 14.3 µM (inactive) | 14.3 µM (inactive) | 2.26 µM (inactive) | 15 µM (inactive) | 7.66 µM (inactive) | 26.9 µM (inactive) | 14 µM (inactive) | 16.3 µM (inactive)
